Measured values from patent US8652823B2, “Strain for butanol production with increased membrane unsaturated trans fatty acids” (Butamax(TM) Advanced Biofuels LLC, priority 2008, dated 2014).

Key:
Format in all cases: cell-based, Lactobacillus plantarum
[1] = system: L. plantarum PN0512; assay: Growth yield of fatty acid fed cultures in the presence of 2-butanol; conditions: for OD600 (growth yield): overnight growth at 30° C., average of biological replicates
Description: (§1) Growth medium was semi-synthetic LAB medium, pH7, with bovine serum albumin (BSA) used as a carrier. […] The composition of this medium is as follows:
(§2) All medium ingredients were purchased from Sigma Chemical Company (St. Louis, Mo.) except yeast extract and casamino acids, which were purchased from Beckton, Dickinson and Co (Sparks, Md.). Free fatty acids, added to a final concentration of […] from 1% ethanol stock solutions (stored at −20° C.), were purchased from Sigma Chemical Company (St Louis, Mo.), Isobutanol, 1-butanol, 2-butanol, and methyl ethyl ketone (MEK) were purchased from Sigma Chemical Company (St. Louis, Mo.).
(§3) A working stock of Lactobacillus plantarum PN0512 (ATCC # PTA-7727) was prepared to use as a consistent source of inoculum. Cultures were grown in MRS medium (Acumedia Manufacturers, Inc. Lansing, Mich.) at 30° C. overnight. Glycerol was added to a final concentration of 12.5% and aliquots were frozen at −80° C. One aliquot was thawed at room temperature and used to inoculate all tubes in an experiment and then discarded.
(§4) For growth yield experiments, 5 ml of medium with fatty acids and several concentrations of 1-butanol, isobutanol, 2-butanol, or MEK in 15 ml screw cap tubes was inoculated with 12.5 μl of the working stock giving an initial OD600 of 0.012. The caps were tightly sealed and incubated at 30° C. on a roller drum for 20 to 26 hours, at which time 1.0 ml was removed and OD600 was measured with a blank of medium amended with the fatty acid. All solvent concentrations are reported as % (w/v).
(§5) Cultures were prepared as described in General Methods.

[2] = system: L. plantarum PN0512; assay: Growth yield of fatty acid fed cultures in the presence of isobutanol; conditions: for OD600 (growth yield): 20 hours at 30° C., average of two experiments
Description: as §1, §2, §3, §4
Growth in the presence of these fatty acids and various concentrations of isobutanol was tested. Cultures were prepared as described in General Methods.

[3] = system: L. plantarum PN0512; assay: Growth yield of fatty acid fed cultures in the presence of MEK; conditions: for OD600 (growth yield): overnight growth at 30° C., average of biological replicates
Description: as §1, §2, §3, §4, §5

[4] = system: L. plantarum PN0512; assay: Growth yield of fatty acid fed cultures in the presence of 1-butanol; conditions: for OD600 (growth yield): overnight growth at 30° C., average of biological replicates
Description: as §1, §2, §3, §4, §5

Compound	OD600 (growth yield) ([1]; 2-butanol 0 % w/v)	OD600 (growth yield) ([1]; 2-butanol 2.0 % w/v)	OD600 (growth yield) ([1]; 2-butanol 4.0 % w/v)	OD600 (growth yield) ([1]; 2-butanol 4.5 % w/v)	OD600 (growth yield) ([1]; 2-butanol 4.7 % w/v)	OD600 (growth yield) ([1]; 2-butanol 4.9 % w/v)	OD600 (growth yield) ([1]; 2-butanol 5.1 % w/v)	OD600 (growth yield) ([1]; 2-butanol 5.3 % w/v)	OD600 (growth yield) ([1]; 2-butanol 5.5 % w/v)	OD600 (growth yield) ([2]; isobutanol 1.5 % w/v)	OD600 (growth yield) ([2]; isobutanol 2.0 % w/v)	OD600 (growth yield) ([2]; isobutanol 2.5 % w/v)	OD600 (growth yield) ([2]; isobutanol 2.7 % w/v)	OD600 (growth yield) ([2]; isobutanol 2.9 % w/v)	OD600 (growth yield) ([2]; isobutanol 3.1 % w/v)	OD600 (growth yield) ([2]; isobutanol 3.3 % w/v)	OD600 (growth yield) ([2]; isobutanol 3.5 % w/v)	OD600 (growth yield) ([3]; MEK 0 % (w/v))	OD600 (growth yield) ([3]; MEK 3.5 % (w/v))	OD600 (growth yield) ([3]; MEK 4.0 % (w/v))	other results
CCCCCCCC/C=C\CCCCCCCC(=O)O [oleic acid, reference compound]	1.480	1.410	0.431	0.100	0.067	0.040	0.030	0.004	0.004	1.110	1.130	0.519	0.387	0.095	0.063	0.035	0.015	1.539	1.002	0.9446	OD600 (growth yield) ([1]; 2-butanol 3.0 % w/v): 1.130; OD600 (growth yield) ([3]; MEK 4.5 % (w/v)): 0.942; OD600 (growth yield) ([3]; MEK 5.0 % (w/v)): 0.6828; OD600 (growth yield) ([3]; MEK 5.5 % (w/v)): 0.5004; OD600 (growth yield) ([4]; 1-butanol 0 % (w/v)): 1.509; OD600 (growth yield) ([4]; 1-butanol 2.0 % (w/v)): 1.026; OD600 (growth yield) ([4]; 1-butanol 2.25 % (w/v)): 0.611; OD600 (growth yield) ([4]; 1-butanol 2.5 % (w/v)): 0.161; OD600 (growth yield) ([4]; 1-butanol 2.75 % (w/v)): 0.061; OD600 (growth yield) ([4]; 1-butanol 3.0 % (w/v)): 0.003
CCCCCCCC/C=C/CCCCCCCC(=O)O [elaidic acid, (E)-octadec-9-enoic acid]	1.490	1.430	1.030	0.400	0.186	0.088	0.038	0.030	0.008	1.145	1.100	0.922	0.606	0.281	0.122	0.072	0.042	1.548	1.0041	0.9105	tolerance to 2-butanol when compared to the oleic acid fed culture [1]: improved tolerance; growth yield higher than in the oleic acid fed cultures ([1]; 4.5% w/v 2-butanol): 4 fold; growth yield higher than in the oleic acid fed cultures ([2]; 2.5% w/v isobutanol): 78%; growth yield compared with the oleic acid fed cultures ([2]; concentrations greater than 2% isobutanol): greater; tolerance to MEK as compared with oleic acid fed cultures [3]: did not have improved tolerance to MEK; OD600 (growth yield) ([3]; MEK 4.5 % (w/v)): 0.8871; OD600 (growth yield) ([3]; MEK 5.0 % (w/v)): 0.3235; OD600 (growth yield) ([3]; MEK 5.5 % (w/v)): 0.1477; OD600 (growth yield) ([4]; 1-butanol 0 % (w/v)): 1.508; OD600 (growth yield) ([4]; 1-butanol 2.0 % (w/v)): 1.039; OD600 (growth yield) ([4]; 1-butanol 2.25 % (w/v)): 1.003; OD600 (growth yield) ([4]; 1-butanol 2.5 % (w/v)): 0.559; OD600 (growth yield) ([4]; 1-butanol 2.75 % (w/v)): 0.095; OD600 (growth yield) ([4]; 1-butanol 3.0 % (w/v)): 0.009; growth yield higher than in the oleic acid fed cultures ([4]; 2.5% w/v 1-butanol): greater than 3 fold; growth yield compared with the oleic acid fed cultures ([4]; concentrations greater than 2% 1-butanol): greater
